Test results: patent publication US9624214B2, “Amino-substituted imidazo[1,2-a]pyridinecarboxamides and their use” (BAYER PHARMA AKTIENGESELLSCHAFT, priority 2012, dated 2017)
Where a name gives a salt, the structure may show the parent alone.

The molecules below were run against T1, recombinant guanylate cyclase reporter cell line (Rattus norvegicus, UniProt P19686+P20595) (assay: B-2. Action on recombinant guanylate cyclase reporter cell line). Settings: MEC = minimal effective concentration; in some cases mean values from individual determinations.
T1 construct: expressed in transfected cells
T1 sequence (P20595 1-619): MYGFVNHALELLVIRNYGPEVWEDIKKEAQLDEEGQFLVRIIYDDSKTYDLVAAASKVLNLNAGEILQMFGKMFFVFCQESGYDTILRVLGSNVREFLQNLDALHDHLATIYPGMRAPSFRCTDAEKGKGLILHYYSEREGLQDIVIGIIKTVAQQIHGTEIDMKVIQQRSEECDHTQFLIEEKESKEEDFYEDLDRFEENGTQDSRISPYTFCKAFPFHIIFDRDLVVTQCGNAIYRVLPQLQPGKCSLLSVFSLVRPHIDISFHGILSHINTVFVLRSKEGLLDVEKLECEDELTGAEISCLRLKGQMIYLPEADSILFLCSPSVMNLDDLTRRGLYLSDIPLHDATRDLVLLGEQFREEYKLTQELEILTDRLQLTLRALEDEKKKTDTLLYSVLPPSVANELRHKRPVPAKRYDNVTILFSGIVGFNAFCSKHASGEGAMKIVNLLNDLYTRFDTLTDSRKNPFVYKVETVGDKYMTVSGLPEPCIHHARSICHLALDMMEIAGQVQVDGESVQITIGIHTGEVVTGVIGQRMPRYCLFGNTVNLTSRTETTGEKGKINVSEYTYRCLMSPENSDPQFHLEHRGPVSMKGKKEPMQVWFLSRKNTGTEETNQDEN
T1 sequence (P19686 1-690): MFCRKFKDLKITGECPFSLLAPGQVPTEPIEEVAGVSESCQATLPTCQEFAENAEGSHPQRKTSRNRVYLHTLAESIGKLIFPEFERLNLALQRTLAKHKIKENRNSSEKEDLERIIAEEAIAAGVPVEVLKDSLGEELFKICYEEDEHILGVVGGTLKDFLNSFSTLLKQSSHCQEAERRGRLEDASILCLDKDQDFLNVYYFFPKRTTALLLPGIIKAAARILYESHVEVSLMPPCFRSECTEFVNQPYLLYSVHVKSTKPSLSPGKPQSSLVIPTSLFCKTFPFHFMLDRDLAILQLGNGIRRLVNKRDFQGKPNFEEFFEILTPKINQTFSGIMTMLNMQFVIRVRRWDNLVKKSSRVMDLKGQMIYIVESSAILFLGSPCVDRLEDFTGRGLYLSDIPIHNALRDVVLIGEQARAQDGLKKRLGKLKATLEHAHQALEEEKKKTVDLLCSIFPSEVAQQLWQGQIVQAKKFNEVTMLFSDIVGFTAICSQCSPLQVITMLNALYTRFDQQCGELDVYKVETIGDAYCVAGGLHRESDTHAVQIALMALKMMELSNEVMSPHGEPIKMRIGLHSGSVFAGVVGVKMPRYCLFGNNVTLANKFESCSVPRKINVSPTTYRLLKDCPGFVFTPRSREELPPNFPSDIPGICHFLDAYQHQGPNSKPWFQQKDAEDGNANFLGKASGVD
Format: cell-based
Method: B-2. Action on Recombinant Guanylate Cyclase Reporter Cell Line
The cellular action of the compounds according to the invention is determined on a recombinant guanylate cyclase reporter cell line, as described in F. Wunder et al., Anal. Biochem. 339, 104-112 (2005).
Representative MEC values (MEC=minimal effective concentration) for the compounds according to the invention are shown in the following table (in some cases as mean values obtained from individual determinations): […]

Structure (SMILES)	MEC [µM]
Cc1nc2c(OCc3c(F)cccc3F)cccn2c1C(=O)NCC(N)C(F)(F)C(F)F (racemic) [Example 230, rac-N-(2-Amino-3,3,4,4-tetrafluorobutyl)-8-[(2,6-difluorobenzyl)oxy]-2-methylimidazo[1,2-a]-pyridine-3-carboxamide]	1.00
Cc1cc(OCc2c(F)cccc2F)c2nc(C)c(C(=O)NCC3CCc4ccccc4N3)n2c1 (racemic) [Example 235, rac-8-[(2,6-Difluorobenzyl)oxy]-2,6-dimethyl-N-(1,2,3,4-tetrahydroquinolin-2-ylmethyl)imidazo-[1,2-a]pyridine-3-carboxamide]	0.30
Cc1cc(OCCC(C)C)c2nc(C)c(C(=O)NCC(C)(N)CC(C)C)n2c1 (racemic) [Example 249, rac-N-(2-Amino-2,4-dimethylpentyl)-2,6-dimethyl-8-(3-methylbutoxy)imidazo[1,2-a]pyridine-3-carboxamide]	1.00
Cc1nc2c(OCc3c(F)cccc3F)cccn2c1C(=O)NCC1CCc2ccccc2N1 (racemic) [Example 250, rac-8-[(2,6-Difluorobenzyl)oxy]-2-methyl-N-(1,2,3,4-tetrahydroquinolin-2-ylmethyl)imidazo[1,2-a]pyridine-3-carboxamide]	1.00
Cc1cc(OCCC(C(F)(F)F)C(F)(F)F)c2nc(C)c(C(=O)NCC(C)(N)CC(C)C)n2c1 (racemic) [Example 258, rac-N-(2-Amino-2,4-dimethylpentyl)-2,6-dimethyl-8-[4,4,4-trifluoro-3-(trifluoromethyl)butoxy]-imidazo[1,2-a]pyridine-3-carboxamide]	1.00
Cc1cc(OCc2c(F)cccc2F)c2nc(C)c(C(=O)NCC(C)(N)CCOCc3ccccc3)n2c1 (racemic) [Example 262, rac-N-[2-Amino-4-(benzyloxy)-2-methylbutyl]-8-[(2,6-difluorobenzyl)oxy]-2,6-dimethylimidazo-[1,2-a]pyridine-3-carboxamide]	0.10
Cc1nc2c(OCc3c(F)cccc3F)cccn2c1C(=O)NCC(C)(N)COCc1ccccc1 (racemic) [Example 263, rac-N-[2-amino-3-(benzyloxy)-2-methylpropyl]-8-[(2,6-difluorobenzyl)oxy]-2-methylimidazo[1,2-a]pyridine-3-carboxamide]	1.00
Cc1nc2c(OCc3c(F)cccc3F)cccn2c1C(=O)NCC(C)(N)CCOCc1ccccc1 (racemic) [Example 264, rac-N-[2-amino-4-(benzyloxy)-2-methylbutyl]-8-[(2,6-difluorobenzyl)oxy]-2-methylimidazo[1,2-a]pyridine-3-carboxamide]	0.03
Cc1cc(OCc2c(F)cccc2F)c2nc(C)c(C(=O)NCC(C)(N)COCc3ccccc3)n2c1 (racemic) [Example 265, rac-N-[2-amino-3-(benzyloxy)-2-methylpropyl]-8-[(2,6-difluorobenzyl)oxy]-2,6-dimethylimidazo[1,2-a]pyridine-3-carboxamide]	0.30
CCCC(C)(N)CNC(=O)c1c(C)nc2c(OCc3c(F)cccc3F)c(F)ccn12 (racemic) [Example 277, rac-N-(2-Amino-2-methylpentyl)-8-[(2,6-difluorobenzyl)oxy]-7-fluoro-2-methylimidazo[1,2-a]-pyridine-3-carboxamide]	1.00
Cc1cc(OCc2c(F)cccc2F)c2nc(C)c(C(=O)NCC(C)(N)Cc3ccc(F)cc3)n2c1 (racemic) [Example 296, rac-N-[2-amino-3-(4-fluorophenyl)-2-methylpropyl]-8-[(2,6-difluorobenzyl)oxy]-2,6-dimethylimidazo[1,2-a]pyridine-3-carboxamide]	0.10
Cc1cc(OCc2c(F)cccc2F)c2nc(C)c(C(=O)NC3CCNCC3(F)F)n2c1 (racemic) [Example 299, rac-8-[(2,6-difluorobenzyl)oxy]-N-(3,3-difluoropiperidin-4-yl)-2,6-dimethylimidazo[1,2-a]pyridine-3-carboxamide]	0.10

Continued, values first:

MEC [µM]	Structure (SMILES)
0.30	Cc1nc2c(OCc3c(F)cccc3F)cc(Cl)cn2c1C(=O)NCC(C)(N)CC(C)C (racemic) [Example 225, rac-N-(2-Amino-2,4-dimethylpentyl)-6-chloro-8-[(2,6-difluorobenzyl)oxy]-2-methylimidazo[1,2-a]pyridine-3-carboxamide]
0.10	CCCC(C)(N)CNC(=O)c1c(C)nc2c(OCc3c(F)cccc3F)cc(C)cn12 (racemic) [Example 232, rac-N-(2-Amino-2-methylpentyl)-8-[(2,6-difluorobenzyl)oxy]-2,6-dimethylimidazo[1,2-a]pyridine-3-carboxamide]
0.30	Cc1nc2c(OCc3c(F)cccc3F)cc(Cl)cn2c1C(=O)NCC(C)(N)C(F)(F)F (racemic) [Example 236, rac-N-(2-Amino-3,3,3-trifluoro-2-methylpropyl)-6-chloro-8-[(2,6-difluorobenzyl)oxy]-2-methylimidazo[1,2-a]pyridine-3-carboxamide]
0.30	Cc1cc(OCc2c(F)cccc2F)c2nc(C)c(C(=O)NCC(C)(N)C(F)(F)F)n2c1 (racemic) [Example 239, rac-N-(2-Amino-3,3,3-trifluoro-2-methylpropyl)-8-[(2,6-difluorobenzyl)oxy]-2,6-dimethyl-imidazo[1,2-a]pyridine-3-carboxamide]
0.30	CCCC(C)(N)CNC(=O)c1c(C)nc2c(OCc3c(F)cccc3F)cc(Cl)cn12 (racemic) [Example 244, rac-N-(2-Amino-2-methylpentyl)-6-chloro-8-[(2,6-difluorobenzyl)oxy]-2-methylimidazo[1,2-a]-pyridine-3-carboxamide]
0.30	CCC(C)(N)CNC(=O)c1c(C)nc2c(OCc3c(F)cccc3F)cccn12 (racemic) [Example 254, rac-N-(2-Amino-2-methylbutyl)-8-[(2,6-difluorobenzyl)oxy]-2-methylimidazo[1,2-a]pyridine-3-carboxamide]
0.03	Cc1cc(OCc2c(F)cccc2F)c2nc(C)c(C(=O)NCC(C)(N)C3CC3)n2c1 (racemic) [Example 259, rac-N-(2-Amino-2-cyclopropylpropyl)-8-[(2,6-difluorobenzyl)oxy]-2,6-dimethylimidazo[1,2-a]-pyridine-3-carboxamide]
1.00	Cc1cc(OCc2c(F)cccc2F)c2nc(C)c(C(=O)NCC(C)(N)CCO)n2c1 (racemic) [Example 270, rac-N-(2-Amino-4-hydroxy-2-methylbutyl)-8-[(2,6-difluorobenzyl)oxy]-2,6-dimethylimidazo[1,2-a]pyridine-3-carboxamide]
1.00	Cc1nc2c(OCc3c(F)cccc3F)cccn2c1C(=O)NCC(C)(N)CO (racemic) [Example 273, rac-N-(2-Amino-3-hydroxy-2-methylpropyl)-8-[(2,6-difluorobenzyl)oxy]-2-methylimidazo[1,2-a]-pyridine-3-carboxamide]
0.3	Cc1cc(OCc2c(F)cccc2F)c2nc(C)c(C(=O)NCC(C)(N)CF)n2c1 (racemic) [Example 282, rac-N-(2-amino-3-fluoro-2-methylpropyl)-8-[(2,6-difluorobenzyl)oxy]-2,6-dimethylimidazo[1,2-a]pyridine-3-carboxamide Formate]
0.03	CCCC(C)(N)CNC(=O)c1c(C)nc2c(OCc3c(F)ccc(F)c3F)cc(C)cn12 (racemic) [Example 293, rac-N-(2-amino-2-methylpentyl)-2,6-dimethyl-8-[(2,3,6-trifluorobenzyl)oxy]imidazo[1,2-a]pyridine-3-carboxamide]
0.10	Cc1cc(OCc2c(F)cccc2F)c2nc(C)c(C(=O)NCC(C)(N)Cc3ccccn3)n2c1 (racemic) [Example 297, rac-N-[2-amino-2-methyl-3-(pyridin-2-yl)propyl]-8-[(2,6-difluorobenzyl)oxy]-2,6-dimethylimidazo[1,2-a]pyridine-3-carboxamide]
